The values below come from US20250228835A1, “PYRIDINYLOXYPYRIDINES AND RELATED COMPOUNDS AND THEIR USE IN TREATING MEDICAL CONDITIONS” (Rectify Pharmaceuticals, Inc., priority 2024, published 2025).

Holding throughout (assay type): cell-based
The target in one assay is T1, ABCC6 WT (Homo sapiens, UniProt O95255).
T1 construct: expressed in transfected cells; host or cells: HEK-293 (transient, Lipofectamine 2000)
In words: ABCC6 WT assay: HiBit protein expression. To be noted: HEK-293 cells transiently expressing HiBit-tagged ABCC6 WT; 24 h treatment; top concentration 20 μM; read-out: ABCC6 WT EC50, Emax. Put shortly: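 HEK-293 cells transiently transfected with HiBit-tagged human ABCC6 WT cDNA, seeded 24 h post-transfection, treated 24 h at 37° C with ten 2-fold doses (top 20 μM final, 0.15% DMSO). HiBit lytic luminescence reports protein expression; Emax and EC50 derived.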
(The HiBiT peptide binds its large partner to form an active luciferase.)

In the next assay the target is T2, ABCB4 WT (Homo sapiens, UniProt P21439).
T2 construct: expressed in transfected cells
T2 sequence (P21439 whole entry): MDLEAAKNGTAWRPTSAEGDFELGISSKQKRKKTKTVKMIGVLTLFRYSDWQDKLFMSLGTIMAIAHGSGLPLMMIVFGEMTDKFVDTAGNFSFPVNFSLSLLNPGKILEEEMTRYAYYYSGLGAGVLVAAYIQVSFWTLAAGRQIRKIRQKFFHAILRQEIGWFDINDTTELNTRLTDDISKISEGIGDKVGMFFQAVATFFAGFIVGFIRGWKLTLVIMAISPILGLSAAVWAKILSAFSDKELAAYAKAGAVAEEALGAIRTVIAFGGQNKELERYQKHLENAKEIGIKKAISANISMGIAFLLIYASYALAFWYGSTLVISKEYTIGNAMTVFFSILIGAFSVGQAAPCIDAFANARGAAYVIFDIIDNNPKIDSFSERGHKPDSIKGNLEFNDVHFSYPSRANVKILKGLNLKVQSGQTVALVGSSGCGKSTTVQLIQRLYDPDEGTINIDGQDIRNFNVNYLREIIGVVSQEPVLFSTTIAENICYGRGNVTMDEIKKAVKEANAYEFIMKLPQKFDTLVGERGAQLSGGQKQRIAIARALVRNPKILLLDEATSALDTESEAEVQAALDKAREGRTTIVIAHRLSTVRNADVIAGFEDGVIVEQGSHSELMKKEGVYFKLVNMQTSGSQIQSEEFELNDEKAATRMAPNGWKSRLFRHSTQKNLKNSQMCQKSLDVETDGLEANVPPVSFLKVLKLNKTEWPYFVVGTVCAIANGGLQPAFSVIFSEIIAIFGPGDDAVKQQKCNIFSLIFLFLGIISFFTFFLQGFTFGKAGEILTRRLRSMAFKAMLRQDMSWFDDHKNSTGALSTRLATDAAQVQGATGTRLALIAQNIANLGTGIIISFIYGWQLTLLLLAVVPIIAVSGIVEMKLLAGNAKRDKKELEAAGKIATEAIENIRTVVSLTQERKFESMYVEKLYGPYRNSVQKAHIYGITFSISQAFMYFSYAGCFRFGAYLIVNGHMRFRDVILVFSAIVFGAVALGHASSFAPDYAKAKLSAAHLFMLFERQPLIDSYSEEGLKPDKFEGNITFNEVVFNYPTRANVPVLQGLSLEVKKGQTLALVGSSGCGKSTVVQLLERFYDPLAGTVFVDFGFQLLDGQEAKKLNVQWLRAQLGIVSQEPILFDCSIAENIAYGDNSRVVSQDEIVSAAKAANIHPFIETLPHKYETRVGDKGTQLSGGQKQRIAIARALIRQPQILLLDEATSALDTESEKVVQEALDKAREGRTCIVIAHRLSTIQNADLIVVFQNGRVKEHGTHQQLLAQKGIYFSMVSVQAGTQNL
Nature of the assay: ABCB4 WT assay: HiBit protein expression. Conditions: HEK-293 cells stably expressing HiBit-tagged ABCB4 WT; 24 h treatment; top concentration 30 μM; read-out: ABCB4 WT EC50, Emax. Put shortly:
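HEK-293 cells stably expressing HiBit-tagged human ABCB4 WT, treated 24 h at 37 °C with 11-dose 3-fold dilutions, top final 30 μM in 0.3% DMSO. HiBit lytic reagent luminescence read after 1 h at 25 °C; Emax and EC50 derived.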

The target of a further assay is T3, ABCA4 P1380L (Homo sapiens, UniProt P78363, P1380L).
T3 construct: expressed in transfected cells
T3 sequence (P78363 whole entry P1380L): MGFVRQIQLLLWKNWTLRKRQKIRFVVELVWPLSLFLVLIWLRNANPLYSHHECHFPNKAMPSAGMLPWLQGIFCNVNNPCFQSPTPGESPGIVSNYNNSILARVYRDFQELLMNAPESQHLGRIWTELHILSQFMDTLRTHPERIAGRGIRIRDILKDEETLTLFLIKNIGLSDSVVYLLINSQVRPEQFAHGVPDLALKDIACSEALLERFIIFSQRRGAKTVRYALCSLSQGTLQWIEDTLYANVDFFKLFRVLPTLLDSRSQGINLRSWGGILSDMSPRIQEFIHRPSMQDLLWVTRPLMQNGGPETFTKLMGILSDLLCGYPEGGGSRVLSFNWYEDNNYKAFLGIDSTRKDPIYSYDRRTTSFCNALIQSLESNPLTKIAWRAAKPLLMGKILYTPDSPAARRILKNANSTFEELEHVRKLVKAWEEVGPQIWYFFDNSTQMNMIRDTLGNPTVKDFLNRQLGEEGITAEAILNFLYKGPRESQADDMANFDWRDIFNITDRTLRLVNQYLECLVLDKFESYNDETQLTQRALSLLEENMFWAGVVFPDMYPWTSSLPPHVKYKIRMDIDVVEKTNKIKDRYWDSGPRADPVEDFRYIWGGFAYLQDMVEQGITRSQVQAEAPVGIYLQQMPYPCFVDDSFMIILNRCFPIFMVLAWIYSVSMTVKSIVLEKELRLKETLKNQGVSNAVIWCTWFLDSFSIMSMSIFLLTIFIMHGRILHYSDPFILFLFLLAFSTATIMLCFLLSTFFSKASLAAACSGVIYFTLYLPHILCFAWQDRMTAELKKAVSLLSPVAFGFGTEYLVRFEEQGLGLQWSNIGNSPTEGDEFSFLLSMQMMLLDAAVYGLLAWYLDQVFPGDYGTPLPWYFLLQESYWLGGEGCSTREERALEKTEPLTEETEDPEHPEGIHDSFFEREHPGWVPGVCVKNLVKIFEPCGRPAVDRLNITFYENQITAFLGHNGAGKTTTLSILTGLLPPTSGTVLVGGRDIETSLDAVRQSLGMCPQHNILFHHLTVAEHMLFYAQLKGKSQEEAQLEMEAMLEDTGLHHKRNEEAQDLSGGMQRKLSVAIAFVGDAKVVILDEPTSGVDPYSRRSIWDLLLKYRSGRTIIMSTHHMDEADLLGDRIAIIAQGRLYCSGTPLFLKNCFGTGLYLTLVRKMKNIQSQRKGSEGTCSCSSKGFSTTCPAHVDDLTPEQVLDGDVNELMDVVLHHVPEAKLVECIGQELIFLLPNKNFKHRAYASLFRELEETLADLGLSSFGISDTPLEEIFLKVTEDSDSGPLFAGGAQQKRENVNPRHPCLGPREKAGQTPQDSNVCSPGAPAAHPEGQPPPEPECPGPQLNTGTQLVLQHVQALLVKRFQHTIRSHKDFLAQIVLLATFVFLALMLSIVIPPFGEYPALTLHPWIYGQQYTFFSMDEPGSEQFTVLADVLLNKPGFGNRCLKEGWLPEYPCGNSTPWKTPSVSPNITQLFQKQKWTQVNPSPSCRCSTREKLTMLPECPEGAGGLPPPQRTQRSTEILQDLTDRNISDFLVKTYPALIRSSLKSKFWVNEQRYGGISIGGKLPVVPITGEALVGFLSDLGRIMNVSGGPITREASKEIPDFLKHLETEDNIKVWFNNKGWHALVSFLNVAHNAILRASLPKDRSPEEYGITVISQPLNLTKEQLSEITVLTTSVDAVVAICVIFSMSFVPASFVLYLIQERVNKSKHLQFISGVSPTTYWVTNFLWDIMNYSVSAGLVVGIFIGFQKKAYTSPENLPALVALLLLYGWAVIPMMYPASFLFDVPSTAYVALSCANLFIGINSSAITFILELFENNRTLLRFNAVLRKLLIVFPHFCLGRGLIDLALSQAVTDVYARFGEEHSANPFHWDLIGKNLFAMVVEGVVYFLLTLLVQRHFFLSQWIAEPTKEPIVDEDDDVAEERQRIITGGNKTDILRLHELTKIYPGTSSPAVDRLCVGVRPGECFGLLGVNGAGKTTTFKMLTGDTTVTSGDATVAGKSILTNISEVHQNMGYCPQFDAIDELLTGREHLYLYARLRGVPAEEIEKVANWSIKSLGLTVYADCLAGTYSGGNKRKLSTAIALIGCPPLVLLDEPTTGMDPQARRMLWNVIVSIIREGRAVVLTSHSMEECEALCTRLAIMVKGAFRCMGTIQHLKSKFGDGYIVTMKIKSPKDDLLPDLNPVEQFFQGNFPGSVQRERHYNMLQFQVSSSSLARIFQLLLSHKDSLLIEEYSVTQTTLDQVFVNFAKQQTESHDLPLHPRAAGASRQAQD
In words: A4 correction dose-response assay: ABCA4 P1380L HiBit protein expression. To be noted: HEK-293 cells stably expressing HiBit-tagged ABCA4 P1380L; 24 h treatment; top concentration 30 μM; read-out: ABCA4 P1380L EC50, Emax. Put shortly:
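Cells transfected with HiBit-tagged human ABCA4 P1380L cDNA were treated for 24 h at 37°C with an eleven-point dilution series (top final 30 μM, 0.3% DMSO).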

T1 sequence (O95255 whole entry): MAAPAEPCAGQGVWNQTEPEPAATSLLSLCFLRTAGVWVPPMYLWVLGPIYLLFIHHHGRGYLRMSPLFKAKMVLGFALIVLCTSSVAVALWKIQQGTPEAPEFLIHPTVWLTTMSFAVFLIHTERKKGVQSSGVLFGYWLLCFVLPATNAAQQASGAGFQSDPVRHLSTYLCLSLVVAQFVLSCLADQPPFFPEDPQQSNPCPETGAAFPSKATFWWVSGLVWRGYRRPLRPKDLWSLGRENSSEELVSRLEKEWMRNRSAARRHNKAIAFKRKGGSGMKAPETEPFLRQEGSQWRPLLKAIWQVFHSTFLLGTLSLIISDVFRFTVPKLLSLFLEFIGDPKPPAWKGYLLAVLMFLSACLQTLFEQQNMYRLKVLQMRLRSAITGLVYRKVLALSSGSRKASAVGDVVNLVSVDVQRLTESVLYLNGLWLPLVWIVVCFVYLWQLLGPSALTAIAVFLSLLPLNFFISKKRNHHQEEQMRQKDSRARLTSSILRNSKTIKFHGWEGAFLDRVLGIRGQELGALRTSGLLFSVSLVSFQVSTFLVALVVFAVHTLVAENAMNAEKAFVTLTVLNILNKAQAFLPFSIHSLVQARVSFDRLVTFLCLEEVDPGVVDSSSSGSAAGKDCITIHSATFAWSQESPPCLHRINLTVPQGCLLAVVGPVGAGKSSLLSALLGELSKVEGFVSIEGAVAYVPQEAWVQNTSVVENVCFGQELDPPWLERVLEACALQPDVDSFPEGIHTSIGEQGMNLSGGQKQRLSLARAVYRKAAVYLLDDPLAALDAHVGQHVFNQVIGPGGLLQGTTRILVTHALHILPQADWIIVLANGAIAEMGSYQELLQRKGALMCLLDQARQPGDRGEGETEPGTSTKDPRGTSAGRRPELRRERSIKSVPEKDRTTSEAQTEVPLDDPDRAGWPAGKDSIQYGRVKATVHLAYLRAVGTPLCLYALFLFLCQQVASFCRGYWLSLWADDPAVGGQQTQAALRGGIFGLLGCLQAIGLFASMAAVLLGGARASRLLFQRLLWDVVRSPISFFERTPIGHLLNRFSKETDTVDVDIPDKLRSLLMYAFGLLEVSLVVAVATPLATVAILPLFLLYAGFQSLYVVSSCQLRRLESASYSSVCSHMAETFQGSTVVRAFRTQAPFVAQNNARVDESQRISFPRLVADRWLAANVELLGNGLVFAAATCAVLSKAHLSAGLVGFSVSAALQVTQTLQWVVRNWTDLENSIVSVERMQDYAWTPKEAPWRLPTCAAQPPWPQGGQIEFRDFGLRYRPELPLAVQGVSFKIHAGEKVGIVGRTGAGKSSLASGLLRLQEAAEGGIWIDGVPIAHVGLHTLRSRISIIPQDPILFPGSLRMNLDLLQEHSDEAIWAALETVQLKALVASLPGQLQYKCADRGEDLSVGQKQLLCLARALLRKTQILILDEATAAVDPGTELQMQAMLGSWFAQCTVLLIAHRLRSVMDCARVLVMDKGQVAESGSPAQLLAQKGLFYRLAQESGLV

As a reminder, the EC50 is the concentration giving half of the maximal effect. Consider `Cc1cc(C)c(Oc2nc(-c3cncc(C#N)c3)ccc2NS(=O)(=O)C2CC2)c(C)n1` [Compound I-266], for which the EC50 at ABCC6 WT, on ABCB4 WT and on ABCA4 P1380L was < 1 µM each time.

Take `Cc1cc(C)c(Oc2nc(-c3cncc(C#N)c3)ccc2NS(=O)(=O)C2COC2)c(C)c1` [Compound I-267]: the EC50 is < 1 µM on ABCC6 WT, < 1 µM at ABCB4 WT and < 25 µM at ABCA4 P1380L.

`Cc1cc(C)c(Oc2nc(-c3cncc(C#N)c3)ccc2NS(C)(=O)=O)c(C2CC2)n1` [Compound I-268]: the EC50 on ABCC6 WT, at ABCB4 WT and on ABCA4 P1380L was < 1 µM in each case.

In the case of `Cc1cc(C)c(Oc2nc(-c3ccc(C#N)nc3C)ccc2NS(C)(=O)=O)c(C)n1` [Compound I-269], the EC50 at ABCC6 WT is 1 to 10 µM; on ABCB4 WT, < 1 µM; at ABCA4 P1380L, 1 to 10 µM.

Consider `Cc1cc(C)c(Oc2nc(-c3cc(C#N)cnc3C)ccc2NS(C)(=O)=O)c(C)n1` [Compound I-270], for which the EC50 on ABCC6 WT was 1 to 10 µM; at ABCB4 WT, < 25 µM; on ABCA4 P1380L it was < 25 µM.

Turning to `Cc1cc(C2CC2)cc(C)c1Oc1nc(-c2cncc(C#N)c2)ccc1NS(C)(=O)=O` [Compound I-271], the EC50 at ABCC6 WT was < 1 µM; at ABCB4 WT, 1 to 10 µM; on ABCA4 P1380L, < 1 µM.

Turning to `Cc1cc(C)c(Oc2nc(-n3cnc(C#N)c3)ccc2N(C)S(C)(=O)=O)c(C)c1` [Compound I-272], the EC50 is 1 to 10 µM at ABCC6 WT, < 25 µM on ABCB4 WT and 1 to 10 µM on ABCA4 P1380L.

For the molecule `Cc1cc(C)c(Oc2nc(-n3cnc(C#N)c3)ccc2NS(C)(=O)=O)c(C)c1` [Compound I-273], the EC50 on ABCC6 WT is < 1 µM; on ABCB4 WT, < 25 µM; on ABCA4 P1380L it was < 25 µM.

As to `Cc1cc(C)c(Oc2nc(-n3cc(C#N)cn3)ccc2NS(C)(=O)=O)c(C)c1` [Compound I-274], the EC50 on ABCC6 WT was < 1 µM; on ABCB4 WT, < 25 µM; on ABCA4 P1380L, < 1 µM.

For the molecule `Cc1cc(C)c(Oc2nc(-c3cncc(C#N)c3)cnc2NS(C)(=O)=O)c(C)c1` [Compound I-275], the values for the EC50 on ABCC6 WT, at ABCB4 WT and at ABCA4 P1380L were < 1 µM, ≥ 25 µM and < 25 µM, respectively.

As for `Cc1cc(C)c(Oc2nc(-c3cncc(C#N)c3)ccc2NS(=O)(=O)C(C)C)c(C)n1` [Compound I-276], the EC50 on ABCC6 WT, at ABCB4 WT and on ABCA4 P1380L was < 1 µM in each case.

For `Cc1cc(C)c(Oc2nc(-c3cncc(Cl)c3)cnc2NS(C)(=O)=O)c(C)c1` [Compound I-277], the results for the EC50 at ABCC6 WT, at ABCB4 WT and on ABCA4 P1380L were < 1 µM, ≥ 25 µM and < 25 µM, respectively.

For `Cc1cc(C)c(Oc2nc(-c3cncc(S(C)(=O)=O)c3)ccc2NS(C)(=O)=O)c(C)c1` [Compound I-278], the values for the EC50 on ABCC6 WT, on ABCB4 WT and at ABCA4 P1380L were 1 to 10 µM, ≥ 25 µM and 1 to 10 µM, respectively.

As for `Cc1cc(C)c(Oc2nc(-c3cncc(C#N)c3)ccc2S(C)(=N)=O)c(C)c1` (stereo not drawn) [Compound I-279], the EC50 on ABCC6 WT, at ABCB4 WT and on ABCA4 P1380L was < 1 µM throughout.

In the case of `Cc1cc(C)c(Oc2nc(-c3cncc(C#N)c3)ccc2S(N)(=O)=O)c(C)c1` [Compound I-280], the half-maximal effective concentration (EC50) at ABCC6 WT, on ABCB4 WT and on ABCA4 P1380L was < 1 µM in each case.

With `CNS(=O)(=O)c1ccc(-c2cncc(C#N)c2)nc1Oc1c(C)cc(C)cc1C` [Compound I-281], the EC50 at ABCC6 WT, at ABCB4 WT and on ABCA4 P1380L was < 1 µM each time.

In the case of `Cc1cc(C)c(Oc2nc(-c3cc(Cl)cnc3C)ccc2NS(C)(=O)=O)c(C)n1` [Compound I-282], the EC50 at ABCC6 WT is 1 to 10 µM; on ABCB4 WT, ≥ 25 µM; on ABCA4 P1380L, > 25 µM.

With `Cc1cc(C)c(Oc2nc(-c3cn(C)nc3C)ccc2NS(C)(=O)=O)c(C)c1` [Compound I-283], the EC50 at ABCC6 WT, at ABCB4 WT and at ABCA4 P1380L was < 1 µM throughout.

For the molecule `Cc1cc(C)c(Oc2nc(-c3cncc(C#N)c3)ncc2NS(C)(=O)=O)c(C)n1` [Compound I-284], the values for the EC50 on ABCC6 WT, on ABCB4 WT and on ABCA4 P1380L were < 1 µM, < 1 µM and < 25 µM, respectively.

With `Cc1cc(C)c(Oc2nc(N3CCN(C(=O)C4CC4)CC3)ccc2S(N)(=O)=O)c(C)c1` [Compound I-285], the EC50 was 1 to 10 µM on ABCC6 WT, ≥ 25 µM at ABCB4 WT and > 25 µM on ABCA4 P1380L.
